Assay results from US20210260106A1, “CHLORITE-CONTAINING COMPOSITIONS” (ClearCrescent Technologies, LLC, priority 2008, published 2021).
In brackets after ≈: the same amount, converted by molar mass. Like-named read-outs stand apart in the source and are kept apart here.

Key:
[1] = tested on: onychomycosis; fungal infections of the skin and nails; assay: Azole antifungals tested on fungal infections of skin and nails; parameters: species or system human; details: in vivo
[2] = tested on: Trichophyton rubrum ATCC MYA 4438; assay: MIC study in broth culture, sodium chlorite and itraconazole; format: cell-based; details: for MIC: Trichophyton rubrum, read-out: amount of Itraconazole required to inhibit the fungus (MIC)
Protocol: As shown in the examples, in vitro data was generated and the minimum inhibitory concentrations (MIC) tests were determined in broth culture using ATCC MYA 4438. Itraconazole is the azole used in the study. […] On the X-axis are dilutions of itraconazole. Fungal Growth is noted by a + and lack of growth by a −.
Referring to FIG. 18, the experiments were repeated with the strain Trichophyton rubrum.

[3] = tested on: Trichophyton mentagrophytes ATCC MYA 4439; assay: as above; format: cell-based; details: for MIC: Trichophyton mentagrophytes, read-out: amount of Itraconazole required to inhibit the fungus (MIC)
[4] = Topical treatment of psoriasis, divided elbow, one subject; format: in vivo, human; details: for Result after 3 days treated twice daily: elbow section
From the text: Background: A subject suffered from Psoriasis diagnosed […]. They have not undergone treatment for their condition since 1996. They report rash after bathing that turns to white plaques with scaling within days. Treatment 1: […] They then distributed the combination to the entire affected right lateral section of their elbow. Treatment 2: […] They then distributed the combination to the entire affected outside lateral section. Treatment 3: […] They then distributed the combination to the entire affected interior lateral section.

Treatment of dog wound = format: in vivo; details: rear leg
From the text: Dog was occasionally limping and favoring his rear leg. A 2-inch diameter area of raw red moist skin was observed where hair had fallen out. Upon close inspection a 1,½ inch suppurating cut was observed which created a dark line leading to a 1 cm×2 cm section of blackened skin. Dog had been topically treated with Triamcinolone Acetonide and bandaged previously to no effect.
The ratio was 1:1. At the second and third interval Neosporin™ was mixed in hand with other compositions in a 1:1:1 ratio. Dog was not observed to lick wound.

Candida albicans = details: at 0.5%
[5] = tested on: dermataphytes that cause tinea pedis and onychomycosis
[6] = Topical treatment of psoriasis on chin and face; format: in vivo, human; details: three days twice daily
Protocol: Patient was treated on the chin for three days twice daily. On their right side of the chin, sodium chlorite solution was applied alone.
They applied SC combined with CCT's herbal treatment to their right side of their chin. SC+ a composition containing 3.66 g thymol, 3.66 g menthol, 3.66 g menthyl acetate in 100 ml grapeseed oil with 0.25 ounce beeswax.

human cells = details: Ingram et al 2004; cited from earlier work
[7] = format: in vivo, human
From the text: Compositions were topically applied to various skin and nail conditions. […] The solution was applied by dropper to affected areas, or combined with a bioactive agent and then applied to the affected area or applied sequentially to the affected area at least once daily, preferably twice daily during treatment period. […] Background: A subject was diagnosed with Dyshidrosis in March of 2012. Symptoms included small blisters on the palms of their hands and the underside of their fingers with scaling. […] They abandoned the treatment. Symptoms continued. They occasionally self-treated the condition with over the counter Lamisil. […] Treatment: […]

Protocol for Candidia albicans: An in vitro determination of the use of sodium chlorite on human tissue culture and broth culture of Candidia albicans was performed.

CC(=O)N1CCN(c2ccc(OCC3COC(Cn4ccnc4)(c4ccc(Cl)cc4Cl)O3)cc2)CC1 (stereo not shown) [Ketaconazole]
effectiveness against fungal infection of nails/skin [1]: excellent results

CCC(C)n1ncn(-c2ccc(N3CCN(c4ccc(OCC5COC(Cn6cncn6)(c6ccc(Cl)cc6Cl)O5)cc4)CC3)cc2)c1=O (stereo not shown) [Itraconazole, itraconazole]
MIC ([2]; combined with sodium chlorite): < 0.03 µg/mL | MIC ([2]; itraconazole alone): 0.06 µg/mL (≈ 0.085 µM) | decrease of itraconazole MIC ([2]; combined with sodium chlorite): at least 2 fold | MIC ([3]; combined with sodium chlorite): < 0.03 µg/mL | MIC ([3]; itraconazole alone): 0.125 µg/mL (≈ 0.177 µM) | decrease of itraconazole MIC ([3]; combined with sodium chlorite): at least 4 fold

Clc1ccccc1C(c1ccccc1)(c1ccccc1)n1ccnc1 [1% Clotrimazole cream, Clotrimazole]
psoriasis symptoms two days later ([4]; Treatment 3, elbow section): White dry scales were not perceived and the rash was less apparent | Result after 3 days treated twice daily [4]: plaques are not present

CC1(C)O[C@@H]2C[C@H]3[C@@H]4CCC5=CC(=O)C=C[C@]5(C)[C@@]4(F)[C@@H](O)C[C@]3(C)[C@]2(C(=O)CO)O1 [Triamcinolone Acetonide]
wound outcome (Treatment of dog wound): no effect

sodium chlorite
drop of sodium chlorite's MIC ([2]; combined with itraconazole): eight-fold | effect on Candida albicans on agar plates (Candida albicans): kills Candida albicans rather than simply inhibiting its growth | drop of sodium chlorite's MIC ([3]; combined with itraconazole): two-fold | effective concentration when combined with azole antifungals ([5]; combined with antifungals in the azole group): ≥ 0.015% | effective concentrations alone against dermataphytes ([5]; sodium chlorite alone, broth culture and in vivo): 0.25-4% | Candidia albicans killing (Candidia albicans; 0.5% sodium chlorite in culture broth): effective in killing | Candidia albicans killing (Candidia albicans; 0.5% sodium chlorite in culture broth, listed as Sodium Chlorite): Yes | Candidia albicans killing (Candidia albicans; 2.0% sodium chlorite in culture broth): effective in killing | Candidia albicans killing (Candidia albicans; 2.0% sodium chlorite in culture broth, listed as Sodium Chlorite): Yes | toxicity against Candidas albicans (Candidia albicans; at 0.5%): 100% | regrowth of Candidia albicans (Candidia albicans; continued culture without sodium chlorite): did not result in regrowth | side by side comparison with standard antifungal agent in vitro (Candidia albicans; versus fluconazole): significantly superior results compared to fluconazole | recurrence of psoriasis symptoms in treated area of chin, 92 days later [6]: no recurrence of psoriasis symptoms

C=C1CCN([C@H](C)[C@](O)(Cn2cncn2)c2ccc(F)cc2F)CC1 [10% efinaconazole, efinaconazole]
Result after 3 days treated twice daily [4]: Rash and white scaling | Result after 3 days treated twice daily ([4]; listed as efinaconazole): white dry scales and evidence of rash

chlorite ions
concentration shown to be non-toxic to human cells (human cells): 100 ppm

CN(C/C=C/C#CC(C)(C)C)Cc1cccc2ccccc12 [Lamisil]
local tolerance of earlier treatment ([7]; human, in vivo): stinging | result of earlier treatment of the subject's Dyshidrosis ([7]; subject's history before the study): no significant amelioration of symptoms

N#C/C(=C1/SC[C@@H](c2ccc(Cl)cc2Cl)S1)n1ccnc1 [1% Luliconazole cream, luliconazole]
psoriasis symptoms one day later ([4]; Treatment 2, elbow section): White dry scales were perceived though the rash was less apparent | Result after 3 days treated twice daily [4]: Red Rash and scaling | Result after 3 days treated twice daily ([4]; listed as Luliconazole): red rash and plaques were present
